In brackets after ≈: the same amount, converted by molar mass. Bridge positions count the residues as written; N and C are the ends. Square brackets hold non-standard residues; d marks the D form. Peptide text beside a SMILES is read from it. * marks the point of attachment. X1 = CC[C@H](C)CCCCC(=O)*; Dab = NCC[C@H](N)C(=O)O
Experiments:
Type in all cases: cell-based
[1] = tested on: Staphylococcus aureus IFO12732; assay: microbe, parasite or virus in culture; conditions: 10 mM Tris/HCl pH 7.5, 2 h incubation, colony count; for MBC: Staphylococcus aureus, IFO12732
Description: (§1) Microbicidal assay was performed as previously described. Briefly, each microbial strain in the mid-exponential phase was suspended in 10 mM Tris/HCl, pH 7.5. The microbial suspension was mixed with antimicrobials in the presence or absense of NP4P. After 2 h incubation, the suspension was diluted 1,000 times and inoculated on to plates of IFO702 medium. The number of colonies were counted, and a plot of peptide concentration vs colony number was created.

Escherichia coli JM109 = conditions: for MBC, NP4P-: absence of NP4P, 10 mM Tris/HCl pH 7.5, 2 h incubation, colony count
Description: as §1, with “Briefly, each microbial strain in the mid-exponential phase was suspended in 10 mM Tris/HCl, pH 7.5.” left out

[2] = tested on: Pseudomonas aeruginosa IFO3899; conditions: absence of NP4P; 10 mM Tris/HCl pH 7.5, 2 h incubation, colony count
Description: as §1

[3] = tested on: Salmonella typhimurium IFO13245; conditions: absence of NP4P; 10 mM Tris/HCl pH 7.5, 2 h incubation, colony count
Description: as §1

[4] = tested on: Serratia marcescens IFO3736; conditions: absence of NP4P; 10 mM Tris/HCl pH 7.5, 2 h incubation, colony count
Description: as §1

| Compound | MBC ([1]; absence of NP4P) [µg/mL] | MBC ([1]; presence of 20 μg/mL NP4P) [µg/mL] | MBC, NP4P- ([1]; absence of NP4P) [µg/mL] | MBC, NP4P- (Escherichia coli JM109) [µg/mL] | other results |
| --- | --- | --- | --- | --- | --- |
| CC1(C)S[C@@H]2[C@H](NC(=O)[C@H](N)c3ccccc3)C(=O)N2[C@H]1C(=O)O [Ampicillin] | 250 (≈ 715 µM) | 250 | – | – | – |
| CCN1CCN(c2cc3c(cc2F)c(=O)c(C(=O)O)cn3C2CC2)CC1 [Enrofloxacin] | 0.25 (≈ 0.696 µM) | 0.25 | – | – | – |
| CC[C@H](C)[C@H](N)C(=O)N[C@@H](CC(C)C)C(=O)N1CCC[C@H]1C(=O)N[C@@H](Cc1c[nH]c2ccccc12)C(=O)N[C@@H](CCCCN)C(=O)N[C@@H](Cc1c[nH]c2ccccc12)C(=O)N1CCC[C@H]1C(=O)N[C@@H](Cc1c[nH]c2ccccc12)C(=O)N[C@@H](Cc1c[nH]c2ccccc12)C(=O)N1CCC[C@H]1C(=O)N[C@@H](Cc1c[nH]c2ccccc12)C(=O)N[C@@H](CCCNC(=N)N)C(=O)N[C@@H](CCCNC(=N)N)C(N)=O [Indolicidin] | – | – | 10 (≈ 5.25 µM) | 10 (≈ 5.25 µM) | – |
| NC[C@H]1O[C@H](O[C@H]2[C@H](O)[C@@H](O[C@H]3O[C@H](CO)[C@@H](O)[C@H](N)[C@H]3O)[C@H](N)C[C@@H]2N)[C@H](O)[C@@H](O)[C@@H]1O [Kanamycin] | – | – | 3 (≈ 6.19 µM) | – | MBC, NP4P+ ([1]; presence of 20 μg/mL NP4P): 3 µg/mL |
| CC[C@H](C)CCCCC(=O)N[C@@H](CCN)C(=O)N[C@H](C(=O)N[C@@H](CCN)C(=O)N[C@H]1CCNC(=O)[C@H]([C@@H](C)O)NC(=O)[C@H](CCN)NC(=O)[C@H](CCN)NC(=O)[C@H](CC(C)C)NC(=O)[C@@H](Cc2ccccc2)NC(=O)[C@H](CCN)NC1=O)[C@@H](C)O [Polymyxin B] (X1-[Dab]T[Dab][Dab][Dab][dF]L[Dab][Dab]T; lactam 4-C (inferred); N-terminus assumed) | – | – | – | 3 (≈ 2.49 µM) | shift of bactericidal dose-effect curve to lower concentration (Escherichia coli JM109; in the presence of 100 μg/mL NP4P, 10 mM Tris-HCl, pH 7.4): ~10 times lower concentration; MBC, NP4P- [2]: 5 µg/mL (≈ 4.15 µM); MBC, NP4P- [3]: 5 µg/mL (≈ 4.15 µM); MBC, NP4P- [4]: 5 µg/mL (≈ 4.15 µM) |

Source: paper PMC2834666, “An enhancer peptide for membrane-disrupting antimicrobial peptides” (BMC Microbiology, 2010)
